Measured values published in PubChem BioAssay AID1919006 (Molecular Pharmacology Branch, DTP, NCI, 2023).
pIC50: −log10 of the molar value.

Test system: 885512-296-R-J2-PDC complex spheroid growth, % test/control
Assay: Anticancer human tumor 885512-296-R-J2-PDC patient-derived breast carcinoma cell line growth inhibition [AhR]
Conditions: for pIC50: curve of first compound; for viability, T/C: stronger effect = lower value; active means viability on the fitted dose curve at most 10% of control; inactive means the rest
In short: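 Spheroids combined tumor cells with HUVEC endothelial cells and human MSCs as stroma. AhR antagonists were paired with standard or investigational drugs, each dosed in half-log steps down from near clinical Cmax, or from 10 microM where Cmax was unknown.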

[1] = second compound 0.1 µM, first compound 0.0316 µM
[2] = second compound 0.1 µM, first compound 0.1 µM
[3] = second compound 0.1 µM, first compound 0.316 µM
[4] = second compound 0.1 µM, first compound 1 µM
[5] = second compound 0.316 µM, first compound 0.0316 µM
[6] = second compound 0.316 µM, first compound 0.1 µM
[7] = second compound 0.316 µM, first compound 0.316 µM
[8] = second compound 0.316 µM, first compound 1 µM
[9] = second compound 1 µM, first compound 0.0316 µM
[10] = second compound 1 µM, first compound 0.1 µM
[11] = second compound 1 µM, first compound 0.316 µM
[12] = second compound 1 µM, first compound 1 µM
[13] = second compound 3.16 µM, first compound 0.0316 µM
[14] = second compound 3.16 µM, first compound 0.1 µM
[15] = second compound 3.16 µM, first compound 0.316 µM
[16] = second compound 3.16 µM, first compound 1 µM
[17] = second compound 10 µM, first compound 0.0316 µM
[18] = second compound 10 µM, first compound 0.1 µM
[19] = second compound 10 µM, first compound 0.316 µM
[20] = second compound 10 µM, first compound 1 µM
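Further: spheroids exposed to compounds for seven days.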

Nc1ncn(C2CC(O)C(CO)O2)c(=O)n1 (stereo not given) + Cc1ccccc1N=Nc1ccc(NC(=O)c2ccnn2C)c(C)c1
6.02: pIC50 (second compound 0.1 µM)
inactive: viability, T/C (second compound 0.1 µM, first compound 0.00316 µM) 114% | viability, T/C (second compound 0.1 µM, first compound 0.01 µM) 128% | viability, T/C [1] 112% | viability, T/C [2] 106% | viability, T/C [3] 74.2% | viability, T/C [4] 48.9% | viability, T/C (second compound 0.316 µM, first compound 0.00316 µM) 109% | viability, T/C (second compound 0.316 µM, first compound 0.01 µM) 114% | viability, T/C [5] 122% | viability, T/C [6] 111% | viability, T/C [7] 78.3% | viability, T/C [8] 43.9% | viability, T/C (second compound 1 µM, first compound 0.00316 µM) 111% | viability, T/C (second compound 1 µM, first compound 0.01 µM) 108% | viability, T/C [9] 122% | viability, T/C [10] 106% | viability, T/C [11] 80% | viability, T/C [12] 44.7% | viability, T/C (second compound 3.16 µM, first compound 0.00316 µM) 88.8% | viability, T/C (second compound 3.16 µM, first compound 0.01 µM) 79.2% | viability, T/C [13] 112% | viability, T/C [14] 95.5% | viability, T/C [15] 77.3% | viability, T/C [16] 48.1% | viability, T/C (second compound 10 µM, first compound 0.00316 µM) 50.6% | viability, T/C (second compound 10 µM, first compound 0.01 µM) 58.4% | viability, T/C [17] 62.8% | viability, T/C [18] 67% | viability, T/C [19] 60.1% | viability, T/C [20] 48.3%
< 6.00: pIC50 (second compound 10 µM)
6.09: pIC50 (second compound 0.316 µM)
6.03: pIC50 (second compound 3.16 µM)
6.08: pIC50 (second compound 1 µM)

O=C(c1cc(Cc2n[nH]c(=O)c3ccccc23)ccc1F)N1CCN(C(=O)C2CC2)CC1 + Cc1ccccc1N=Nc1ccc(NC(=O)c2ccnn2C)c(C)c1
5.24: pIC50 (second compound 0.316 µM)
5.32: pIC50 (second compound 3.16 µM)
inactive: viability, T/C [1] 118% | viability, T/C [2] 135% | viability, T/C [3] 147% | viability, T/C [4] 117% | viability, T/C (second compound 0.1 µM, first compound 3.16 µM) 83.7% | viability, T/C (second compound 0.1 µM, first compound 10 µM) 22.6% | viability, T/C [5] 138% | viability, T/C [6] 145% | viability, T/C [7] 138% | viability, T/C [8] 130% | viability, T/C (second compound 0.316 µM, first compound 3.16 µM) 80% | viability, T/C (second compound 0.316 µM, first compound 10 µM) 23.4% | viability, T/C [9] 121% | viability, T/C [10] 133% | viability, T/C [11] 132% | viability, T/C [12] 109% | viability, T/C (second compound 1 µM, first compound 3.16 µM) 80.4% | viability, T/C (second compound 1 µM, first compound 10 µM) 18.7% | viability, T/C [13] 110% | viability, T/C [14] 103% | viability, T/C [15] 111% | viability, T/C [16] 101% | viability, T/C (second compound 3.16 µM, first compound 3.16 µM) 66.6% | viability, T/C (second compound 3.16 µM, first compound 10 µM) 20.8% | viability, T/C [17] 67.1% | viability, T/C [18] 59.5% | viability, T/C [19] 66.4% | viability, T/C [20] 70.8% | viability, T/C (second compound 10 µM, first compound 3.16 µM) 52.6% | viability, T/C (second compound 10 µM, first compound 10 µM) 17.5%
5.26: pIC50 (second compound 1 µM)
5.23: pIC50 (second compound 0.1 µM)
5.46: pIC50 (second compound 10 µM)

CCc1c2c(nc3ccc(O)cc13)-c1cc3c(c(=O)n1C2)COC(=O)[C@]3(O)CC + CC(CO)NC(=O)c1cc(-c2ccc(Cl)cc2)nn(-c2cnn(C)c2)c1=O
active: viability, T/C (second compound 0.1 µM, first compound 0.000949 µM) 9.08% | viability, T/C (second compound 0.1 µM, first compound 0.003 µM) 7.28% | viability, T/C (second compound 0.1 µM, first compound 0.00949 µM) 5.78% | viability, T/C (second compound 0.1 µM, first compound 0.03 µM) 3.29% | viability, T/C (second compound 0.1 µM, first compound 0.0949 µM) 2.16% | viability, T/C (second compound 0.1 µM, first compound 0.3 µM) 1.46% | viability, T/C (second compound 0.316 µM, first compound 0.000949 µM) 8.34% | viability, T/C (second compound 0.316 µM, first compound 0.003 µM) 6.02% | viability, T/C (second compound 0.316 µM, first compound 0.00949 µM) 3.71% | viability, T/C (second compound 0.316 µM, first compound 0.03 µM) 3.2% | viability, T/C (second compound 0.316 µM, first compound 0.0949 µM) 1.99% | viability, T/C (second compound 0.316 µM, first compound 0.3 µM) 1.09% | viability, T/C (second compound 1 µM, first compound 0.003 µM) 7.68% | viability, T/C (second compound 1 µM, first compound 0.00949 µM) 4.79% | viability, T/C (second compound 1 µM, first compound 0.03 µM) 3.71% | viability, T/C (second compound 1 µM, first compound 0.0949 µM) 2.42% | viability, T/C (second compound 1 µM, first compound 0.3 µM) 1.92% | viability, T/C (second compound 3.16 µM, first compound 0.003 µM) 9.5% | viability, T/C (second compound 3.16 µM, first compound 0.00949 µM) 4.77% | viability, T/C (second compound 3.16 µM, first compound 0.03 µM) 4.01% | viability, T/C (second compound 3.16 µM, first compound 0.0949 µM) 2.56% | viability, T/C (second compound 3.16 µM, first compound 0.3 µM) 2.05% | viability, T/C (second compound 10 µM, first compound 0.00949 µM) 6.57% | viability, T/C (second compound 10 µM, first compound 0.03 µM) 4.99% | viability, T/C (second compound 10 µM, first compound 0.0949 µM) 2.67% | viability, T/C (second compound 10 µM, first compound 0.3 µM) 2.21%
inactive: viability, T/C (second compound 1 µM, first compound 0.000949 µM) 10.7% | viability, T/C (second compound 3.16 µM, first compound 0.000949 µM) 10.8% | viability, T/C (second compound 10 µM, first compound 0.000949 µM) 13.8% | viability, T/C (second compound 10 µM, first compound 0.003 µM) 12.5%
> 9.02: pIC50 (second compound 0.1 µM) | pIC50 (second compound 0.316 µM) | pIC50 (second compound 1 µM) | pIC50 (second compound 3.16 µM) | pIC50 (second compound 10 µM)
